The text below walks through data of US20100298758A1, “METHOD FOR NON-THERAPEUTIC OR THERAPEUTIC PHOTODYNAMIC SKIN TREATMENT” (priority 2007, published 2010).

Molecules are shown by their SMILES.

In this assay the test system is cancer cells with high metabolism. As to the kind of experiment: Fluorescence after administration of 5-ALA in actinic keratosis (FIG. 5). Conditions: other investigations. The assay is classed as in vivo.

With `NCC(=O)CCC(=O)O` [5-ALA, 5-aminolevulinic acid], the “fluorescence in cancer cells compared to normal cells” value was “high selective fluorescence in cancer cells”.
